Earlier results on two compounds are cited in US20220387349A1, “TREATMENT OF CUTANEOUS ADVERSE EFFECTS CAUSED BY ONCOLOGICAL THERAPY WITH TOPICAL TAPINAROF COMPOSITIONS” (Sol-Gel Technologies Ltd, priority 2019, published 2022).

For series [1] the following is noted: psoriasis treatment, as a single drug; placebo 20.2%.
The test system of series [2] is interleukin-6 and interleukin-17A. Conditions: mouse models.
For series [3] the test system is unchanged. Particulars: in vitro human skin studies.
Setting [4] is: 1% tapinarof arm compared with the 0.5% arm or vehicle.

Where two headings read alike, the source gives them in different places.

For the compound `C=C1/C(=C\C=C2/CCC[C@]3(C)[C@@H]([C@H](C)/C=C/[C@@H](O)C4CC4)CC[C@@H]23)C[C@@H](O)C[C@@H]1O` [calcipotriene], the adverse effects in series [1] is 19.5%.
Consider `CC(C)c1c(O)cc(/C=C/c2ccccc2)cc1O` [Tapinarof, 3,5-dihydroxy-4-isopropyl-trans-stilbene], for which, in series [1], the adverse effects was 44.5%. For the same compound, under setting [4], the efficacy result is given as “higher efficacy” and the onset of action result was “quicker onset of action”. The “most frequent adverse events” value (topical tapinarof) was “folliculitis and contact dermatitis”. In addition, the “side-effects at higher concentrations” value (topical, higher than 1% w/w tapinarof) is recorded as “undesirable side-effects”. In addition, in series [2], the “effect on skin barrier function” value is listed as “enhance skin barrier function”; the “effect on specific proinflammatory mediators, including interleukin-6 and interleukin-17A” value is on record as “inhibit specific proinflammatory mediators”. Also, in series [3], the “effect on skin barrier function” value is “enhance skin barrier function”; the “effect on specific proinflammatory mediators, including interleukin-6 and interleukin-17A” value is “inhibit specific proinflammatory mediators”.
